Assay results taken from PMC3431135, “Pharmacological Evaluation and Docking Studies of 3-Thiadiazolyl- and Thioxo-1,2,4-triazolylcoumarin Derivatives as Cholinesterase Inhibitors” (ISRN Pharmacology, 2012).
Read-outs that look alike come from different tables or passages of the source.

Experiments:
[1] = target: T1, rabbit AChE (rAChE), isolated from rabbit brain (Oryctolagus cuniculus, UniProt Q29499); experiment: biochemical
T1 construct: AChE was isolated from rabbit brain; from tissue; host or cells: rabbit brain
Method: (§1) Acetylcholinesterase (AChE) (EC 3.1.1.7, type VI-S from Electric Eel), butyrylcholinesterase (BChE) (EC 3.1.1.8, from horse serum). AChE and BChE were also isolated from rabbit brain and serum, respectively.
(§2) AChE was isolated from rabbit brain. Heads were decapitated and brains were thawed and homogenized for 30 sec in 2.5 volumes of 1 mM EDTA, 0.32 M ice cold sucrose, 10 μM tetracain (pH7.0). The homogenates were centrifuged at 105,000 ×g for 60 min (4°C). The supernatants were removed and pellets were again homogenized in same volume of 0.2% triton phosphate buffer. After centrifugation, the supernatants were again removed and pellets were rehomogenized for 10 sec in 2.5 volumes of 1% triton phosphate buffer. […] BChE was obtained from rabbit blood serum by applying the techniques of centrifugation. The purified enzymes were stored at –80°C.
(§3) The inhibitory activities of coumarin derivatives were measured quantitatively by Ellman's method and performed with some modifications as in Ingkaninan et al. method by using 96-microliter well plate. Series of newly synthesized coumarin derivatives were tested as AChE and BChE inhibitors. Initially, each compound was dissolved in DMSO (end concentration of DMSO was less than 1% in assay) and tested at a final concentration of 1 mM or 10 μL of DMSO (as negative control) in wells for initial screening. […] Reaction mixture comprised of 50 μL of 3 mM DTNB (5,5′-dithiobis(2-nitrobenzoic acid)) in assay buffer, 10 μL of test compound, and 10 μL of AChE (0.031 IU/mL) or BChE (0.5 IU/mL). This mixture was preincubated at 25°C for 10 min. After preincubation, enzymatic reaction was started by addition of 10 μL of 10 mM MBTCCl (butyrylthiocholine chloride) or ATCI (acetylthiocholine iodide) according to the respective enzyme and mixture was incubated again for 15 min. […] Enzyme dilution buffer consisted of 50 mM Tris-HCl containing 0.1% (w/v) BSA (pH 8). The effect of DMSO on activity of enzyme was subtracted by a negative control containing DMSO, instead of inhibitor. Each concentration was analyzed in triplicate and Ki values were calculated from IC50 values by using a nonlinear curve fitting program PRISM 5.0 (GraphPad, San Diego, California, USA).

[2] = target: T2, BChE from rabbit serum (rBChE) (Oryctolagus cuniculus, UniProt P21927); experiment: biochemical
T2 construct: BChE was obtained from rabbit blood serum by applying the techniques of centrifugation; from tissue; host or cells: rabbit blood serum
Method: as §1, §2, §3

[3] = target: T3, BChE from horse serum (hBChE) (Equus caballus, UniProt P81908); experiment: biochemical; type: biochemical
T3 construct: butyrylcholinesterase (BChE) (EC 3.1.1.8, from horse serum); purchased Sigma-Aldrich (Steinheim, Germany); host or cells: horse serum (natural source)
Method: as §1, §3

[4] = target: T4, AChE from electrophorus electricus (EeAChE) (Electrophorus electricus, UniProt O42275); experiment: biochemical
T4 construct: Acetylcholinesterase (AChE) (EC 3.1.1.7, type VI-S from Electric Eel); purchased Sigma-Aldrich (Steinheim, Germany) type VI-S; host or cells: electric eel (natural source)
Method: as §1, §3

AChE = experiment: Kinetic characterization of AChE inhibition (Lineweaver-Burk); type: biochemical; conditions: Lineweaver-Burk plots; inhibitor 0–100 nM; substrate ATCI
Method: (§4) […]. […] As Km value was increasing and value of Vmax remained almost same in the presence or absence of inhibitor, indication of competitive type of inhibitory mechanism against AChE and BChE.
(§5) Kinetic characterization of AChE and BChE was performed by using Ellman's method. […]. Enzyme kinetic characterization studies were performed under same incubation conditions as described above by using ATCI and BTCCl as substrates and DTNB was used as chromophoric reagent. A parallel control with no inhibitor in the mixture was added for comparison. Each concentration was analyzed in triplicate; and Lineweaver-Burk (1/V versus 1/[S]) plot was constructed using Prism software.

BChE = experiment: Kinetic characterization of BChE inhibition (Lineweaver-Burk); type: biochemical; conditions: Lineweaver-Burk plots; inhibitor 0–5 nM; substrate BTCCl
Method: as §4, §5

[5] = mean ± SEM of three experiments, Ki calculated from IC50, substrate ATCI, read-out: rAChE Ki ± SEM
[6] = rabbit serum BChE, mean ± SEM of three experiments, Ki calculated from IC50, substrate BTCCl, read-out: rBChE Ki ± SEM
[7] = horse serum BChE, mean ± SEM of three experiments, Ki calculated from IC50, substrate BTCCl, read-out: hBChE Ki ± SEM
[8] = mean ± SEM of three experiments, Ki calculated from IC50, substrate ATCI, read-out: EeAChE Ki ± SEM

T2 sequence (P21927 9-581): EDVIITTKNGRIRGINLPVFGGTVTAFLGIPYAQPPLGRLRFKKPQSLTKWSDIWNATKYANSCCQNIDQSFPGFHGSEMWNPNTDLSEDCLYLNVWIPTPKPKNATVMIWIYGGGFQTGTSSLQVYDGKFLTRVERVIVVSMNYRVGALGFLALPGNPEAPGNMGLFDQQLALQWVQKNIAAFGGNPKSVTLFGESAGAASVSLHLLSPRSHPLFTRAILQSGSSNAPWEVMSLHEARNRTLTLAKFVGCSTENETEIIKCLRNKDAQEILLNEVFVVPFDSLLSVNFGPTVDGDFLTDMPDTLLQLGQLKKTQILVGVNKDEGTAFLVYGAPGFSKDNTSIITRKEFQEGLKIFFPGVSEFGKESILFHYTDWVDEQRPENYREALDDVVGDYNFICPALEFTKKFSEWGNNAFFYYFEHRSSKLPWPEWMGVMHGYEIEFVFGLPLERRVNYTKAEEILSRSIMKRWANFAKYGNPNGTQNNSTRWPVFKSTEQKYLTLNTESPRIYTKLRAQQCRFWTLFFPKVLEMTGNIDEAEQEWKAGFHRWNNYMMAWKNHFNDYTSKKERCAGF
T4 sequence (O42275 24-633): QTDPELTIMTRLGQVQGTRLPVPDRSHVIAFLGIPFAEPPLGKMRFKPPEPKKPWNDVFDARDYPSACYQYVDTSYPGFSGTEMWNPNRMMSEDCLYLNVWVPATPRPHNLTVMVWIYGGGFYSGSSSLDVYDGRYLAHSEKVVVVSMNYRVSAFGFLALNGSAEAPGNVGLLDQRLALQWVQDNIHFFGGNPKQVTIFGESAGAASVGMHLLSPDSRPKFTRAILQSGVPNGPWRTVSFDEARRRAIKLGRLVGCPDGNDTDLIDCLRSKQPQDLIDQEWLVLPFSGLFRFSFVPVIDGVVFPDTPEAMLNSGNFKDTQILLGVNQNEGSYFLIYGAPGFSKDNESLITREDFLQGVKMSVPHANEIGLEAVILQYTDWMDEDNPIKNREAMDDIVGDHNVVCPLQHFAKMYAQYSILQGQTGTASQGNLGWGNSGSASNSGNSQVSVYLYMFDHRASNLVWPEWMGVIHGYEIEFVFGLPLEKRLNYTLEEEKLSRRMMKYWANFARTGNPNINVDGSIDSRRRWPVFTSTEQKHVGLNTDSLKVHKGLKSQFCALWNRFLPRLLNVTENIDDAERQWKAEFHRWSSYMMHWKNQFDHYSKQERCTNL
T3 sequence (P81908 whole entry): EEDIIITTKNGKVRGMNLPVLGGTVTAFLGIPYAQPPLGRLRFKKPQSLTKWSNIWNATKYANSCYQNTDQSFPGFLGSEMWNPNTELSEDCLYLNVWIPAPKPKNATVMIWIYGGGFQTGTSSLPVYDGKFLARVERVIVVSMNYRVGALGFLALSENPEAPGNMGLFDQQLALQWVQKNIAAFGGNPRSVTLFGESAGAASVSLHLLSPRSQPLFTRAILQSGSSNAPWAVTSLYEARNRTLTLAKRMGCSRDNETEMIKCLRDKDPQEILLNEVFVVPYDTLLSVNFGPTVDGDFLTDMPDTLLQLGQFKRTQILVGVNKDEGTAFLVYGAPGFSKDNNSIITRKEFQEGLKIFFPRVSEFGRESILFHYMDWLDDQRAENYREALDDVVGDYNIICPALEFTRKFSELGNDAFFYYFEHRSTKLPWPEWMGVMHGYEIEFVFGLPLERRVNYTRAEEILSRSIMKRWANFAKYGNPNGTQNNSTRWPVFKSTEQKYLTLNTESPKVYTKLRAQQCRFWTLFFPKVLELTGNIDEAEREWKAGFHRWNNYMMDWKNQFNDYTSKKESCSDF
T1 sequence (Q29499 2-584): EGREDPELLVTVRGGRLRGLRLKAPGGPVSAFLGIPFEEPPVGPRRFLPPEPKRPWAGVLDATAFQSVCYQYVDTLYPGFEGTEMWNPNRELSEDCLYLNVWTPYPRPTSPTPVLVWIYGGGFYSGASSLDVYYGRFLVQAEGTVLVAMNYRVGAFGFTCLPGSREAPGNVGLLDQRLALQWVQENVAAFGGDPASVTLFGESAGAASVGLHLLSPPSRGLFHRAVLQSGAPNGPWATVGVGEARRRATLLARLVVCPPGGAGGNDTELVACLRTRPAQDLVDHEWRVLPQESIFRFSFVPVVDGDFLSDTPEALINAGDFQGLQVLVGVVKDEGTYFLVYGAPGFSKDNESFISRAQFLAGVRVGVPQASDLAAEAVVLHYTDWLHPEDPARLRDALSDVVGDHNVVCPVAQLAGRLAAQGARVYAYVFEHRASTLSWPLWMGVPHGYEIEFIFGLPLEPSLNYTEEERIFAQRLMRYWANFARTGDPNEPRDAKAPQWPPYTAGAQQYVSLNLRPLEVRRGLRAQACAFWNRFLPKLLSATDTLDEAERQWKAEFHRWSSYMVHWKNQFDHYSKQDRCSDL

| Structure (SMILES) | Ki [1, 5] [µM] | Ki [2, 6] [µM] | Ki [3, 7] [µM] | Ki [4, 8] [µM] | fold more active on hBChE than neostigmine ([3]; ratio of Ki values versus neostigmine) [fold] | Type of inhibition of AChE (AChE) | Type of inhibition of BChE (BChE) | Ki [1] [µM] | Ki [2] [µM] | Ki [3] [µM] | Ki [4] [µM] |
| --- | --- | --- | --- | --- | --- | --- | --- | --- | --- | --- | --- |
| O=c1oc2ccccc2cc1-c1n[nH]c(=S)n1-c1ccccc1Cl [Compound 3a, 3-(4-(2-Chlorophenyl)-5-thioxo-4,5-dihydro-1H-1,2,4-triazol-3-yl)-2H-chromen-2-one] | 0.47 ± 0.07 | 21.4 ± 1.6 | 0.19 ± 0.01 | 2.42 ± 0.43 | – | – | – | – | – | – | – |
| O=c1oc2ccccc2cc1-c1n[nH]c(=S)n1-c1cccc(Cl)c1 [Compound 3b, 3-(4-(3-Chlorophenyl)-5-thioxo-4,5-dihydro-1H-1,2,4-triazol-3-yl)-2H-chromen-2-one] | 0.6 ± 0.03 | 65.7 ± 2 | 0.036 ± 0.003 | 0.32 ± 0.07 | 2 | – | – | – | – | – | – |
| O=c1oc2ccccc2cc1-c1n[nH]c(=S)n1-c1ccc(Cl)cc1 [Compound 3c, 3-(4-(4-Chlorophenyl)-5-thioxo-4,5-dihydro-1H-1,2,4-triazol-3-yl)-2H-chromen-2-one] | 0.013 ± 0.002 | 0.52 ± 0.03 | 1.34 ± 0.02 | 0.45 ± 0.09 | – | – | – | – | – | – | – |
| Cc1cccc(-n2c(-c3cc4ccccc4oc3=O)n[nH]c2=S)c1 [Compound 3d, 3-(5-Thioxo-4-m-tolyl-4,5-dihydro-1H-1,2,4-triazol-3-yl)-2H-chromen-2-one] | 0.082 ± 0.002 | 1.11 ± 0.05 | 0.18 ± 0.02 | 5.77 ± 0.31 | – | – | – | – | – | – | – |
| Cc1ccc(-n2c(-c3cc4ccccc4oc3=O)n[nH]c2=S)cc1 [Compound 3e, 3-(5-Thioxo-4-p-tolyl-4,5-dihydro-1H-1,2,4-triazol-3-yl)-2H-chromen-2-one] | 0.039 ± 0.002 | 0.14 ± 0.05 | 0.13 ± 0.01 | 18.4 ± 3.4 | – | – | – | – | – | – | – |
| COc1ccccc1-n1c(-c2cc3ccccc3oc2=O)n[nH]c1=S [Compound 3f, 3-(4-(2-Methoxyphenyl)-5-thioxo-4,5-dihydro-1H-1,2,4-triazol-3-yl)-2H-chromen-2-one] | 0.061 ± 0.005 | 0.69 ± 0.02 | 0.28 ± 0.01 | 4.06 ± 0.34 | – | – | – | – | – | – | – |
| COc1cccc(-n2c(-c3cc4ccccc4oc3=O)n[nH]c2=S)c1 [Compound 3g, 3-(4-(3-Methoxyphenyl)-5-thioxo-4,5-dihydro-1H-1,2,4-triazol-3-yl)-2H-chromen-2-one] | 0.046 ± 0.002 | 22.1 ± 0.2 | 7.55 ± 0.03 | 0.98 ± 0.34 | – | – | – | – | – | – | – |
| O=c1oc2ccccc2cc1-c1nnc(Nc2ccccc2Cl)s1 [Compound 4a, 3-(5-(2-Chlorophenylamino)-1,3,4-thiadiazol-2-yl)-2H-chromen-2-one] | 0.031 ± 0.008 | 1.39 ± 0.02 | 0.1 ± 0.01 | 5.75 ± 0.78 | – | – | – | – | – | – | – |
| O=c1oc2ccccc2cc1-c1nnc(Nc2cccc(Cl)c2)s1 [Compound 4b, 3-(5-(3-Chlorophenylamino)-1,3,4-thiadiazol-2-yl)-2H-chromen-2-one] | 0.028 ± 0.002 | 2.26 ± 0.02 | 0.54 ± 0.09 | 0.28 ± 0.07 | – | competitive inhibitor | competitive inhibitor | – | – | – | – |
| O=c1oc2ccccc2cc1-c1nnc(Nc2ccc(Cl)cc2)s1 [Compound 4c, 3-(5-(4-Chlorophenylamino)-1,3,4-thiadiazol-2-yl)-2H-chromen-2-one] | 0.24 ± 0.021 | 0.35 ± 0.01 | 0.42 ± 0.01 | 48.6 ± 4.4 | – | – | – | – | – | – | – |
| Cc1cccc(Nc2nnc(-c3cc4ccccc4oc3=O)s2)c1 [Compound 4d, 3-(5-(m-Toluidino)-1,3,4-thiadiazol-2-yl)-2H-chromen-2-one] | 0.017 ± 0.002 | 0.51 ± 0.01 | 0.66 ± 0.01 | 28 ± 1.63 | – | – | – | – | – | – | – |
| Cc1ccc(Nc2nnc(-c3cc4ccccc4oc3=O)s2)cc1 [Compound 4e, 3-(5-(p-Toluidino)-1,3,4-thiadiazol-2-yl)-2H-chromen-2-one] | 0.561 ± 0.022 | 0.46 ± 0.01 | 0.28 ± 0.02 | 6.19 ± 0.29 | – | – | – | – | – | – | – |
| COc1ccccc1Nc1nnc(-c2cc3ccccc3oc2=O)s1 [Compound 4f, 3-(5-(2-Methoxyphenylamino)-1,3,4-thiadiazol-2-yl)-2H-chromen-2-one] | 0.081 ± 0.001 | 1.36 ± 0.03 | 0.23 ± 0.01 | 7.16 ± 0.01 | – | – | – | – | – | – | – |
| COc1cccc(Nc2nnc(-c3cc4ccccc4oc3=O)s2)c1 [Compound 4g, 3-(5-(3-Methoxyphenylamino)-1,3,4-thiadiazol-2-yl)-2H-chromen-2-one] | 0.021 ± 0.001 | 1.52 ± 0.03 | 0.34 ± 0.01 | 8.26 ± 0.01 | – | – | – | – | – | – | – |
| CN(C)C(=O)Oc1cccc([N+](C)(C)C)c1 [Neostigmine, neostigmine methylsulfate, reference compound] | – | – | – | – | – | – | – | 0.048 ± 0.003 | 0.047 ± 0.006 | 0.06 ± 0.005 | 0.056 ± 0.006 |
